{"source": "patent US20220378706A1", "about": "“PHARMACEUTICAL COMPOSITION COMPRISING PDE9 INHIBITOR” (Eisai R&D Management Co., Ltd., priority 2017, published 2022)", "tested_on": "scopolamine-induced memory impairment in rats", "assay": "Scopolamine-induced memory impairment in rat novel object recognition test", "format": "in vivo", "conditions": "scopolamine 0.7 mg/kg i.p., mean ± SEM", "source_text": "(Effects of Compound a Monomaleate Salt on Scopolamine-Induced Memory Impairment in Rat Novel Object Recognition Test)\nThe effects of orally administered Compound A monomaleate salt on scopolamine-induced memory impairment in a novel object recognition test in rats was examined.\nSix-week-old male Long-Evans rats (Institute for Animal Reproduction) were used in this study. Before test day, rats were placed in each experimental apparatus once a day, on two consecutive days to habituate rats to the test chamber. […]\nFollowing a 2-hour […] interval, a retention trial (T2) was conducted. […] Animal performance in T1 and T2 was recorded with a digital video camera, and the amount of time spent exploring each object was measured by manual stopwatches. […]\nIn novel object recognition test, the following novel object exploration ratio in T2 is considered as amnesic indexes reflecting the discrimination between the familiar and novel objects. These indexes are calculated according to the following formulas: […]\nData are expressed as the mean±SEM. The difference between the non-scopolamine treated control and scopolamine treated control groups were analyzed using unpaired t test. The effects of Compound A monomaleate salt on novel object exploration ratio in T2 was analyzed by one-way analysis of variance (ANOVA) followed by the Dunnett multiple comparison test. […]", "data": [{"smiles": "COc1ncc(C)c(-c2ccc3c(c2)[nH]c(=O)c2cnn([C@H]4CCOC4)c23)c1C", "note": "[Compound A, (S)-7-(2-methoxy-3,5-dimethylpyridin-4-yl)-1-(tetrahydrofuran-3-yl)-1H-pyrazolo[4,3-c]quin olin-4(5H)-one]", "values": [{"measurement": "Novel object exploration ratio in T2", "setting": "3.3 mg/kg oral", "result": "68.5 ± 2.0", "unit": "%"}, {"measurement": "Novel object exploration ratio in T2", "setting": "10 mg/kg oral", "result": "68.5 ± 1.6", "unit": "%"}]}]}
